Results: EPA's ToxRefDB 2

Tests used:
mouse [1] = conditions: Combined chronic toxicity/carcinogenicity; b6c3f1; Oral; Feed; dose end: 104 week; group: systemic; systemic / organ weight / kidney / absolute + systemic / organ weight / kidney / relative to body weight + systemic / pathology microscopic…
rat [2] = conditions: Prenatal developmental toxicity study, fischer, Oral, Gavage/Intubation, dose end: 15 GD
dog [3] = conditions: Subchronic oral toxicity in nonrodent, beagle, Feed, dose end: 13 week, group: systemic
mouse [4] = conditions: Subchronic oral toxicity in rodents, b6c3f1, Feed, dose end: 90 day, group: systemic
rat [5] = conditions: Combined chronic toxicity/carcinogenicity, fischer, Oral, [Not Specified], dose end: 24 month, group: systemic
dog [6] = conditions: Subchronic oral toxicity in nonrodent, beagle, Capsule, dose end: 13 week, group: systemic, systemic / clinical chemistry / creatinine / creatinine + systemic / clinical chemistry / urea nitrogen / urea nitrogen + systemic / in life…
rat [7] = conditions: Subchronic oral toxicity in rodents, fischer, Feed, dose end: 90 day, group: systemic, systemic / clinical chemistry / thyroxine (t4) / thyroxine (t4), total + systemic / clinical chemistry / triiodothyronine (t3) / …
dog [8] = conditions: Chronic toxicity, beagle, Oral, Feed, dose end: 52 week, group: systemic
rat [9] = conditions: Combined chronic toxicity/carcinogenicity; sprague dawley; Oral; Feed; dose end: 104 week; group: systemic; systemic / in life observation / clinical signs / convulsions
rat [10] = conditions: Subchronic oral toxicity in rodents, sprague dawley, Feed, dose end: 90 day, group: systemic, systemic / in life observation / body weight / body weight + systemic / in life observation / body weight / body weight gain + systemic / in…
rat [11] = conditions: Chronic toxicity, wistar, Oral, Feed, dose end: 12 month, group: systemic
dog [12] = conditions: Subchronic oral toxicity in nonrodent, beagle, Feed, dose end: 90 day, group: systemic, systemic / clinical chemistry / alanine aminotransferase (alt/sgpt) / alanine aminotransferase (alt/sgpt) + systemic / clinical chemistry / …
rabbit = conditions: Prenatal developmental toxicity study, himalayan, Oral, Gavage/Intubation, dose end: 19 GD
rat [13] = conditions: Subchronic oral toxicity in rodents, wistar, Feed, dose end: 90 day, group: systemic
rat [14] = conditions: Carcinogenicity, wistar, Oral, Feed, dose end: 104 week, group: systemic
[15] = group: developmental, developmental / developmental malformation / bone / full supernumerary + developmental / developmental malformation / bone / incomplete …
[16] = group: maternal, systemic / in life observation / body weight / body weight gain
[17] = systemic / in life observation / body weight / body weight + systemic / in life observation / body weight / body weight gain + systemic / in…
[18] = systemic / pathology microscopic / kidney / [other] + systemic / pathology microscopic / liver / nuclear alteration + systemic / pathology …
[19] = systemic / clinical chemistry / thyroxine (t4) / thyroxine (t4), total + systemic / organ weight / thyroid gland / absolute + systemic / …
[20] = systemic / pathology gross / thyroid gland / mass
[21] = systemic / clinical chemistry / alanine aminotransferase (alt/sgpt) / alanine aminotransferase (alt/sgpt) + systemic / clinical chemistry / …
[22] = systemic / in life observation / body weight / body weight gain + systemic / pathology microscopic / kidney / pigmentation
[23] = systemic / pathology gross / liver / foci
[24] = systemic / pathology gross / liver / foci + systemic / pathology gross / stomach / thickened + systemic / pathology microscopic / liver / …
[25] = group: developmental, developmental / developmental malformation / bone / [other] + developmental / developmental malformation / bone / fused + developmental / …
[26] = group: developmental, systemic / in life observation / body weight / fetal weight
[27] = systemic / pathology microscopic / kidney / hyaline droplet + systemic / pathology microscopic / kidney / protein + systemic / pathology …
[28] = systemic / pathology microscopic / stomach / hyperkeratosis + systemic / pathology microscopic / liver / hypertrophy + systemic / pathology …
[29] = systemic / pathology gross / lymph node / enlarged
[30] = systemic / pathology microscopic / stomach / edema + systemic / pathology microscopic / stomach / hyperkeratosis + systemic / pathology …

`O=C(O)COc1ccc(Cl)cc1Cl` [2,4-Dichlorophenoxyacetic acid] gave an LEL (mouse [1]) of 62.5 mg/kg/day, an LOAEL (mouse [1]) of 62.5 mg/kg/day and an NEL (mouse [1]) of 5 mg/kg/day. The NOAEL (mouse [1]) was 5 mg/kg/day, the LEL (rat [2]; [15]) was 75 mg/kg/day and the LOAEL (rat [2]; [15]) was 75 mg/kg/day. The NEL (rat [2]; [15]) was 25 mg/kg/day, the NOAEL (rat [2]; [15]) was 25 mg/kg/day and the LEL (rat [2]; [16]) was 75 mg/kg/day. For the same molecule, the LOAEL (rat [2]; [16]) was 75 mg/kg/day, the NEL (rat [2]; [16]) was 25 mg/kg/day and the NOAEL (rat [2]; [16]) was 25 mg/kg/day. For the same molecule, the LEL (dog [3]; [17]) was 0.5 mg/kg/day, the NEL (dog [3]; [17]) was less than 0.5 mg/kg/day and the NOAEL (dog [3]; [17]) was 1 mg/kg/day. For the same molecule, the LOAEL (dog [3]; systemic / in life observation / body weight / body weight gain + systemic / clinical chemistry / alanine aminotransferase (alt/sgpt) / …) was 3.75 mg/kg/day, the LEL (mouse [4]; systemic / clinical chemistry / thyroxine (t4) / thyroxine (t4), free + systemic / in life observation / food consumption / food consumption) was 98.2 mg/kg/day and the LOAEL (mouse [4]; [18]) was 293 mg/kg/day. It also gave an NEL (mouse [4]; [18]) of 14.7 mg/kg/day, an NOAEL (mouse [4]; [18]) of 98.2 mg/kg/day and an LOAEL (rat [5]; [19]) of 73.1 mg/kg/day. For the same molecule, the NOAEL (rat [5]; [19]) was 4.89 mg/kg/day, the LEL (rat [5]; [20]) was 4.89 mg/kg/day and the NEL (rat [5]; [20]) was less than 4.89 mg/kg/day. The LEL (dog [6]) was 3 mg/kg/day, the LOAEL (dog [6]) was 3 mg/kg/day and the NEL (dog [6]) was 1 mg/kg/day. It also gave an NOAEL (dog [6]) of 1 mg/kg/day, an LEL (rat [7]) of 100 mg/kg/day and an LOAEL (rat [7]) of 100 mg/kg/day. The NEL (rat [7]) was 15 mg/kg/day, the NOAEL (rat [7]) was 15 mg/kg/day and the LOAEL (dog [8]; [21]) was 5 mg/kg/day. It also gave an NOAEL (dog [8]; [21]) of 1 mg/kg/day, an LEL (dog [8]; [22]) of 1 mg/kg/day and an NEL (dog [8]; [22]) of less than 1 mg/kg/day.

With `N#Cc1nn(-c2c(Cl)cc(C(F)(F)F)cc2Cl)c(N)c1C(F)(F)F` [Fipronil-desulfinyl] the LEL (rat [9]) was 0.032 mg/kg/day, the LOAEL (rat [9]) was 0.032 mg/kg/day and the NEL (rat [9]) was less than 0.032 mg/kg/day. For the same molecule, the NOAEL (rat [9]) was less than 0.032 mg/kg/day, the LEL (rat [10]) was 0.594 mg/kg/day and the LOAEL (rat [10]) was 0.594 mg/kg/day. It also gave an NEL (rat [10]) of 0.177 mg/kg/day and an NOAEL (rat [10]) of 0.177 mg/kg/day.

`[Cu+2].[O-]/N=[N+](\[O-])C1CCCCC1.[O-]/N=[N+](\[O-])C1CCCCC1` showed an LEL (rat [11]; [23]) of 6.1 mg/kg/day, an NEL (rat [11]; [23]) of less than 6.1 mg/kg/day and an LOAEL (rat [11]; [24]) of 61 mg/kg/day. It also gave an NOAEL (rat [11]; [24]) of 18.3 mg/kg/day, an LEL (dog [12]) of 69 mg/kg/day and an LOAEL (dog [12]) of 69 mg/kg/day. It also gave an NEL (dog [12]) of 26 mg/kg/day, an NOAEL (dog [12]) of 26 mg/kg/day and an LOAEL (rabbit; [25]) of 30 mg/kg/day. The NOAEL (rabbit; [25]) was 10 mg/kg/day, the LEL (rabbit; [26]) was 10 mg/kg/day and the NEL (rabbit; [26]) was less than 10 mg/kg/day. It also gave an LEL (rabbit; [16]) of 10 mg/kg/day, an NEL (rabbit; [16]) of less than 10 mg/kg/day and an LOAEL (rabbit; group: maternal, systemic / in life observation / body weight / body weight gain + systemic / in life observation / food consumption / food consumption) of 30 mg/kg/day. The NOAEL (rabbit; group: maternal, systemic / in life observation / body weight / body weight gain + systemic / in life observation / food consumption / food consumption + …) was 10 mg/kg/day, the LOAEL (rat [13]; [27]) was 140 mg/kg/day and the NOAEL (rat [13]; [27]) was 35 mg/kg/day. It also gave an LEL (rat [13]; [28]) of 125 mg/kg/day, an NEL (rat [13]; [28]) of less than 125 mg/kg/day and an LEL (rat [14]; [29]) of 6 mg/kg/day. For the same molecule, the NEL (rat [14]; [29]) was less than 6 mg/kg/day, the LOAEL (rat [14]; [30]) was 33 mg/kg/day and the NOAEL (rat [14]; [30]) was 6 mg/kg/day.
